Assay in all cases: biochemical
Assay type in all cases: biochemical

The target of experiment [1] is T1, 382 unique human kinases (Homo sapiens, UniProt Q04771).
T1 construct: purchased Reaction Biology (HotSpot contract assay)
T1 sequence (Q04771 21-509): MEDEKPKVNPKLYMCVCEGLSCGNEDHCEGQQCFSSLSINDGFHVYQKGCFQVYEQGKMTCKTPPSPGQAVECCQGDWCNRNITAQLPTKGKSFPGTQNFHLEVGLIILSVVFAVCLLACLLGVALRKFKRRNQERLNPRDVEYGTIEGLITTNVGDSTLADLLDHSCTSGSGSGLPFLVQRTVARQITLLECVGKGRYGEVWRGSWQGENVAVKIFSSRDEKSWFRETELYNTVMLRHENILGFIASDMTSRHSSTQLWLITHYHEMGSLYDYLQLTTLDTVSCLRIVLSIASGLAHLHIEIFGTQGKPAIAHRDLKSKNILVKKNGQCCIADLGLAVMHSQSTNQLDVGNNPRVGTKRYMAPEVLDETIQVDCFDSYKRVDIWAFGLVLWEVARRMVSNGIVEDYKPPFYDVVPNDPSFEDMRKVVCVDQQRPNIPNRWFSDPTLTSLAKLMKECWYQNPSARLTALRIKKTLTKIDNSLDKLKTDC
The conditions noted are these: ALK2/ACVR1, compound at 10 uM, duplicate values; for remaining activity at 10 µM: read-out: % Enzyme Activity (relative to DMSO controls).

The target of experiment [2] is T2, 382 unique human kinases (Homo sapiens, UniProt Q9NRH2).
T2 construct: purchased Reaction Biology (HotSpot contract assay)
T2 sequence (Q9NRH2 1-765): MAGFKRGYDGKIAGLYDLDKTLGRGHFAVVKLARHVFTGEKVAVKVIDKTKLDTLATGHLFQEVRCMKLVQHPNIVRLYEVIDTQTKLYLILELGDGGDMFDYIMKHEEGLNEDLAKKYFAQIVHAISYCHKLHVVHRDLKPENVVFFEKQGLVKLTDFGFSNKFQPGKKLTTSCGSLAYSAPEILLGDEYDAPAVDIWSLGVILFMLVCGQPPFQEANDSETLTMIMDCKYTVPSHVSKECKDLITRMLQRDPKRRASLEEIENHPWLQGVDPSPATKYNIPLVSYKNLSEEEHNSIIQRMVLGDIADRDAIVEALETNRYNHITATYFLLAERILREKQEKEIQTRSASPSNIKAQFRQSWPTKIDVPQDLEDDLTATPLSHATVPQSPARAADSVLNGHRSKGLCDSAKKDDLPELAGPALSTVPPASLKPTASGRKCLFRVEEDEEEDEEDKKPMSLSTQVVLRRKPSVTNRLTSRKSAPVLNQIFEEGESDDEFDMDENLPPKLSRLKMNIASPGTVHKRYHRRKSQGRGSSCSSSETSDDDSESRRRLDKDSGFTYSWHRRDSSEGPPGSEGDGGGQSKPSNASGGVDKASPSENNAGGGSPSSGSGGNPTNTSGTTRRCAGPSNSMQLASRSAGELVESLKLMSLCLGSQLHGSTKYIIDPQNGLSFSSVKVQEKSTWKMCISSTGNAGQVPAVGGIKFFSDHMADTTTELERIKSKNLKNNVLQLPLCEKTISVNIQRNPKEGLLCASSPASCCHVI
The conditions noted are these: SNRK, 10 uM; for remaining activity at 10 µM: read-out: % Enzyme Activity (relative to DMSO controls).

For experiment [3], the target named is T3, 382 unique human kinases (Homo sapiens, UniProt P51812).
T3 construct: purchased Reaction Biology (HotSpot contract assay)
T3 sequence (P51812 whole entry): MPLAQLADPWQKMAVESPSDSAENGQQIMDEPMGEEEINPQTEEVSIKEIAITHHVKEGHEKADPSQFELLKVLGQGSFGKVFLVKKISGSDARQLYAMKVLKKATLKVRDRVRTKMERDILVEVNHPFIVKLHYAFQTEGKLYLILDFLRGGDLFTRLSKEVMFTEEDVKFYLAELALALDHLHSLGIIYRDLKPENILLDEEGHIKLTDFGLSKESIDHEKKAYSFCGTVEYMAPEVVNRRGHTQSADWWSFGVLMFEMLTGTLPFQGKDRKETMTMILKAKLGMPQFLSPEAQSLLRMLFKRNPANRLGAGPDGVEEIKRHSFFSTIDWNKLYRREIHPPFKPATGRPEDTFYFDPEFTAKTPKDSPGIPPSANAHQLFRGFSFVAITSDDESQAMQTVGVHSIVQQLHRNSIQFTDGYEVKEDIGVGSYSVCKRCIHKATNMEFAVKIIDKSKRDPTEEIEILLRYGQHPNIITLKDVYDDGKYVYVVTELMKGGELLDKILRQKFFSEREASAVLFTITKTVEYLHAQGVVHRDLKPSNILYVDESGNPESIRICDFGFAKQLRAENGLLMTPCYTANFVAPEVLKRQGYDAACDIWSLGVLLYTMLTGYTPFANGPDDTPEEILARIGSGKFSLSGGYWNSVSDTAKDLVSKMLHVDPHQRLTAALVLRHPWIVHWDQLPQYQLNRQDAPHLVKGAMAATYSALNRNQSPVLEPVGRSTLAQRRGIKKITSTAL
The conditions noted are these: RSK2, 10 uM; for remaining activity at 10 µM: read-out: % Enzyme Activity (relative to DMSO controls).

Experiment [4] concerns the target T4, 382 unique human kinases (Homo sapiens, UniProt O75460).
T4 construct: purchased Reaction Biology (HotSpot contract assay)
The conditions noted are these: kinase ERN1/IRE1, compound 10 uM; for remaining activity at 10 µM: read-out: % Enzyme Activity (relative to DMSO controls).

Experiment [5] concerns the target T5, 382 unique human kinases (Homo sapiens, UniProt Q9P289).
T5 construct: purchased Reaction Biology (HotSpot contract assay)
The conditions noted are these: MST4, 10 uM; for remaining activity at 10 µM: read-out: % Enzyme Activity (relative to DMSO controls).

For experiment [6], the target named is T6, 382 unique human kinases (Homo sapiens, UniProt P54760).
T6 construct: purchased Reaction Biology (HotSpot contract assay)
T6 sequence (P54760 16-987): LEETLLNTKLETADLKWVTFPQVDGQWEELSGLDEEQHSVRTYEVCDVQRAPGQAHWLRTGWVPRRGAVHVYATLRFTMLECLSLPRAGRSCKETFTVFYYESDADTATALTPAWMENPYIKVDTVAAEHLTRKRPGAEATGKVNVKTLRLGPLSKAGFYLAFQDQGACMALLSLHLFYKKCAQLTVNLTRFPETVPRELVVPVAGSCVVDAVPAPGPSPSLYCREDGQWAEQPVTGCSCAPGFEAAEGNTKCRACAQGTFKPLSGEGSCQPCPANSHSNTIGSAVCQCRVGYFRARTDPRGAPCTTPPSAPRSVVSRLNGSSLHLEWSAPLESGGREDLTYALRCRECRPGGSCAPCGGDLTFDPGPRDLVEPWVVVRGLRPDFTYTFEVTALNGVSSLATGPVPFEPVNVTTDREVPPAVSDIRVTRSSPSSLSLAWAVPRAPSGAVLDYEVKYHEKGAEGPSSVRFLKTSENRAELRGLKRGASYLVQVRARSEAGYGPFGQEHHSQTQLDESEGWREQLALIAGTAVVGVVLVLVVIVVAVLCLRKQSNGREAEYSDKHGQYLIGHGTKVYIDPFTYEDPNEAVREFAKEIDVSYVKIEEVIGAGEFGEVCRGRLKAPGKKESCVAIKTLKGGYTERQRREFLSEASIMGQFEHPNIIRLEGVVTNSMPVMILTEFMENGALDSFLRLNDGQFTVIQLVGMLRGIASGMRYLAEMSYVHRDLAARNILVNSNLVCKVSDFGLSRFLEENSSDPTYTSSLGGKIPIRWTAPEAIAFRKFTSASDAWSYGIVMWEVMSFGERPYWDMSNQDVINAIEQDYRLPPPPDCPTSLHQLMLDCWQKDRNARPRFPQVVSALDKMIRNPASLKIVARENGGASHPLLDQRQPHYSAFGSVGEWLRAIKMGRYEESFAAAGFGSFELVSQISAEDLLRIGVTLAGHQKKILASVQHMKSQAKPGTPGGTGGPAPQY
The settings on record: EPHB4, [ATP] 20 µM, compound 10 uM; for remaining activity at 10 µM: read-out: % Enzyme Activity (relative to DMSO controls).

The target of experiment [7] is T7, 382 unique human kinases (Homo sapiens, UniProt P06241).
T7 construct: purchased Reaction Biology (HotSpot contract assay)
T7 sequence (P06241 whole entry): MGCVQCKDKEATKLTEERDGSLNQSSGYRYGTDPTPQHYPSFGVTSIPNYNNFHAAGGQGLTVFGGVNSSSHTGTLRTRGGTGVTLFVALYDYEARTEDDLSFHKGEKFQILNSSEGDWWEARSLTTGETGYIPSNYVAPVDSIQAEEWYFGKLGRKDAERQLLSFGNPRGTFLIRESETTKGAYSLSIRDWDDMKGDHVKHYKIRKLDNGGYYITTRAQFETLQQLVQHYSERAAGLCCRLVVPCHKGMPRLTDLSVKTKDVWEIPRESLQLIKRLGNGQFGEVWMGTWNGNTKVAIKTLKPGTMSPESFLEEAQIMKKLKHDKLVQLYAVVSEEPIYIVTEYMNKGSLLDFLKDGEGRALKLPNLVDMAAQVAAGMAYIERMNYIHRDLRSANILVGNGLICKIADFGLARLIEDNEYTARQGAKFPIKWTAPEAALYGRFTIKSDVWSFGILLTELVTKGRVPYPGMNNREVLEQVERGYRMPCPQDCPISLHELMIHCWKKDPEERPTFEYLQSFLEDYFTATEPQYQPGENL
The conditions noted are these: FYN, [ATP] 30 µM.

We go through 4 molecules from paper PMC8550792, “Evolution of kinase polypharmacology across HSP90 drug discovery” (Cell Chemical Biology, 2021).

T4 sequence (O75460 19-977): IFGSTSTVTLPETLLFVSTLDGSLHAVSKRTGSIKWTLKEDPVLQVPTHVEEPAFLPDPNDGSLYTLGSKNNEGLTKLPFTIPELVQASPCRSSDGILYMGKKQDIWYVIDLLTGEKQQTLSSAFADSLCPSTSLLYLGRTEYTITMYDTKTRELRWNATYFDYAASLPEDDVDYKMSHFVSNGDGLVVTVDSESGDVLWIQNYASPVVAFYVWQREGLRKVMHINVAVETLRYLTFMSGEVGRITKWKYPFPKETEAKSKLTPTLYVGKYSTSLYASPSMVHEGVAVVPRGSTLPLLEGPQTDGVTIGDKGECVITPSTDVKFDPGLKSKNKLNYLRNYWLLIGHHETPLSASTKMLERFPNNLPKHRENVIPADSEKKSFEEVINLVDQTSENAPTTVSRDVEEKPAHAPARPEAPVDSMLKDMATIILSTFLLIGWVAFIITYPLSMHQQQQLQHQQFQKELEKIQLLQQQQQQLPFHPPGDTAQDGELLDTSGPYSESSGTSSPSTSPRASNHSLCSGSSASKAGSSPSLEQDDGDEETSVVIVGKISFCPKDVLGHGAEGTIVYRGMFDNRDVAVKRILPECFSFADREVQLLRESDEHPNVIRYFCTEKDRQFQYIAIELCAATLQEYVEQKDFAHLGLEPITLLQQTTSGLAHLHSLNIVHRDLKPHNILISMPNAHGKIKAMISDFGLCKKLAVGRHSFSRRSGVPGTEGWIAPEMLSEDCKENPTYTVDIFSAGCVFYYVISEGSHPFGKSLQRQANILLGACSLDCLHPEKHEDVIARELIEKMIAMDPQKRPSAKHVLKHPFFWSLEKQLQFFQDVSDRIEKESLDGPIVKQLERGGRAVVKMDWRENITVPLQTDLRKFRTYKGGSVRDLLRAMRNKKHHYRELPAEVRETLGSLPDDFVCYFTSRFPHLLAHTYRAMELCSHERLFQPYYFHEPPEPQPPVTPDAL
T5 sequence (Q9P289 whole entry): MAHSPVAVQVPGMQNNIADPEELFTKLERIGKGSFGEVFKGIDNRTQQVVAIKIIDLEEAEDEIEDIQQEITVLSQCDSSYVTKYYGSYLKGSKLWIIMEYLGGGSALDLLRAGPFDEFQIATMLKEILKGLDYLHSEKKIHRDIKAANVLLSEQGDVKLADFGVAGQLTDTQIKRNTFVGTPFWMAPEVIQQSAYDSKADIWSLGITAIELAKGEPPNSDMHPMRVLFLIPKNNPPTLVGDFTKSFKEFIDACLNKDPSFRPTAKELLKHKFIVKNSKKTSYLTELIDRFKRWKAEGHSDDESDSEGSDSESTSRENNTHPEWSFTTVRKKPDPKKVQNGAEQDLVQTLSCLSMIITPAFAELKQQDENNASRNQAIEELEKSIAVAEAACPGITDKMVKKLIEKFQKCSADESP

Regarding `CC(C)c1cc(-c2n[nH]c(=O)n2-c2ccc3c(ccn3C)c2)c(O)cc1O` [Ganetespib (STA9090)], the remaining activity at 10 µM amounted to 125% at 382 unique human kinases [1], 76.8% on 382 unique human kinases [2], 78.8% on 382 unique human kinases [3] and 103% at 382 unique human kinases [4].

Turning to `CC(C)c1cc(-c2n[nH]c(=O)n2-c2ccc3c(ccn3C)c2)c(O)cc1O` [Ganetespib], the figures for the remaining activity at 10 µM at 382 unique human kinases [5] and on 382 unique human kinases [6] were 93.8% and 33.1%, respectively. In addition, the remaining activity at 1 µM at 382 unique human kinases [7] (compound 1 uM, read-out: % Enzyme Activity (relative to DMSO controls)) is 47.6%.

`CCNC(=O)c1noc(-c2cc(C(C)C)c(O)cc2O)c1-c1ccc(CN2CCOCC2)cc1` [Luminespib (AUY-922)]: the “% Enzyme Activity (relative to DMSO controls)” value at 382 unique human kinases [1] is listed as 117.92%; on 382 unique human kinases [2], 79.00%; on 382 unique human kinases [3] it was 92.24%; at 382 unique human kinases [4], 82.42%. The remaining activity at 10 µM is 120% at 382 unique human kinases [1], 80.5% on 382 unique human kinases [2], 93.5% on 382 unique human kinases [3] and 82.5% at 382 unique human kinases [4].

`CCNC(=O)c1noc(-c2cc(C(C)C)c(O)cc2O)c1-c1ccc(CN2CCOCC2)cc1` [Luminespib]: the entries for the “% Enzyme Activity (relative to DMSO controls)” value at 382 unique human kinases [5], at 382 unique human kinases [6] and on 382 unique human kinases [7] (compound 10 uM) were 93.01%, 81.04% and 65.29%, respectively. Also, the remaining activity at 10 µM on 382 unique human kinases [5] was determined as 95.1%; at 382 unique human kinases [6] it was 82.2%; on 382 unique human kinases [7] (compound 10 uM, read-out: % Enzyme Activity (relative to DMSO controls)), 65.6%.
